Values of other authors, collected in publication PMC12067266 (Proceedings of the National Academy of Sciences of the …, 2025).

Test system: KCa3.1
Conditions: read-out: KCa3.1 IC50; ref [21]–[23], [49], [50]

SMILES	IC50
O=C1CSc2ccccc2N1Cc1cccc(C(F)(F)F)c1 [NS6180]	0.009 µM
NC(=O)C(c1ccccc1)(c1ccc(F)cc1)c1ccc(F)cc1 [Senicapoc]	0.011 µM
